# Experimental data: PubChem BioAssay AID463199 (Broad Institute, 2010)
# Calls of active or inactive are those of the source.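 Rule for the calls: active = AC50, the dose giving half-maximal effect, exceeds a fixed cutoff for a compound that rescues yeast growth under heat; inactive = the rest, inconclusive results apart.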
# Test system: S. cerevisiae Burl-1 ts mutant growth, BacTiter-Glo, 38.5C 24 h
# Assay: restored growth of temperature-sensitive Burl-1 yeast – whole organism, S. cerevisiae, Burl-1 ts mutant, luminescence, counter-screen for SUMOylation pathway inhibitor project, dose response (AID 463199)
row,Compound,AC50
1,Cn1c(CSc2nc3ccccc3s2)nnc1SCC(=O)NCCN1CCOCC1,> 42 µM (inactive)
2,CCN(CC)CCCN(Cc1cc2cc(OC)ccc2[nH]c1=O)C(=O)Nc1ccc(F)cc1,> 42 µM (inactive)
3,CCC(C)c1ccc(S(=O)(=O)N2CCN(C(=O)COc3ccc4c(C)cc(=O)oc4c3)CC2)cc1 (configuration not stated),> 42 µM (inactive)
4,COc1ccc(NS(=O)(=O)c2cccc(C(=O)NCCCn3ccnc3)c2)cc1,> 42 µM (inactive)
5,Brc1ccc(-c2cn3cccnc3n2)cc1,> 42 µM (inactive)
6,OC1CN=C2CCCc3c2n(c2ccc(Cl)cc32)C1 (configuration not stated),> 42 µM (inactive)
7,CC(C)c1ccc(-c2cc(C(=O)N3CCOCC3)c3cc(Br)ccc3n2)cc1,> 42 µM (inactive)
8,Cc1nc(C)n(CC(=O)N2CCCC(C(=O)c3cccc4ccccc34)C2)n1 (configuration not stated),> 42 µM (inactive)
9,Cc1ccc(NC(=O)/C=N/OCC(=O)NCc2ccccc2Cl)cc1,> 42 µM (inactive)
10,CC12CCC(=O)N1C(C(=O)Nc1ccccc1F)CS2 (configuration not stated),> 42 µM (inactive)
11,COc1cccc(C2C(C(C)=O)=C(O)C(=O)N2CCc2c[nH]c3ccccc23)c1 (configuration not stated),> 42 µM (inactive)
12,Cc1ccc(C)c(-n2nnnc2SCC(=O)Nc2c(C)n(C)n(-c3ccccc3)c2=O)c1,> 42 µM (inactive)
13,COc1ccccc1NC(=O)CN(c1ccc(C)cc1)S(=O)(=O)c1c(C)n[nH]c1C,> 42 µM (inactive)
14,COc1ccc(NC(=O)CN(C)C(=O)/C=C/c2cn(-c3ccccc3)nc2-c2ccc(C)cc2)cc1,> 42 µM (inactive)
15,Cc1noc(C)c1S(=O)(=O)N1CCCC(C(=O)NCC2CCCO2)C1 (configuration not stated),> 42 µM (inactive)
16,COc1ccc(CNC(=O)c2cc(=O)c3cc(C)cc(C)c3o2)cc1,> 42 µM (inactive)
17,Cc1cc(OCC(=O)NCC2CCC(C(=O)O)CC2)c2c(C)c(C)c(=O)oc2c1 (configuration not stated),> 42 µM (inactive)
18,CN(C(=O)C1CCCO1)c1nnc(-c2cnccn2)s1 (configuration not stated),> 42 µM (inactive)
19,COc1ccc(N2CCN(C3CCCN(Cc4cccc(OC)c4)C3)CC2)cc1 (configuration not stated),> 42 µM (inactive)
20,O=C(Nc1ccc(F)cc1F)N1CCCN(c2ccc(C(F)(F)F)cn2)CC1,> 42 µM (inactive)
21,COc1cccc(NC(=O)CN(C)C(=O)c2ccccc2OCc2c(C)noc2C)c1,> 42 µM (inactive)
22,Cc1nn(Cc2ccc(C(=O)Nc3ccccc3C(F)(F)F)o2)c(C)c1Br,> 42 µM (inactive)
23,COC(=O)c1sc(NC(=O)c2ccc(Cn3cc(Cl)cn3)o2)c(C#N)c1C,> 42 µM (inactive)
24,CC(=O)NC1CCCN(O)C(=O)/C=C(\C)CCOC(=O)C(NC(C)=O)CCCN(O)C(=O)/C=C(\C)CCOC(=O)C(NC(C)=O)CCCN(O)C(=O)/C=C(\C)CCOC1=O (configuration not stated),> 42 µM (inactive)
25,COc1ccc(CN2CCNC(=O)C2CC(=O)NCc2cn3ccc(C)cc3n2)c(OC)c1 (configuration not stated),> 42 µM (inactive)

row,Compound,AC50
1,CCOc1ccccc1Nc1nnc(SCc2nnc(-c3cc(OC)c(OC)c(OC)c3)o2)s1,> 42 µM (inactive)
2,COc1cccc2[nH]c(=O)c(-c3ccccc3)cc12,> 42 µM (inactive)
3,O=C1CCC(C(=O)N2CCN(c3ccccc3)CC2)CN1CC1CCCCC1 (configuration not stated),> 42 µM (inactive)
4,COc1cc2c(cc1OC)C(c1ccc(SC)cc1)CC(=O)N2 (configuration not stated),> 42 µM (inactive)
5,O=S(=O)(O)c1ccc(N=NNc2ccc(Br)cc2)cc1,> 42 µM (inactive)
6,COc1cc(CNCc2ccc3c(c2)OCO3)c([N+](=O)[O-])cc1OC,> 42 µM (inactive)
7,CC(C)c1nc2n[nH]c(N)c2c2c1CCC2,> 42 µM (inactive)
8,CCOC(=O)C1=C(N)c2ccccc2CC1C1CCCC1 (configuration not stated),> 42 µM (inactive)
9,O=C(N/N=C/c1ccccn1)NC12CC3CC(CC(C3)C1)C2,> 42 µM (inactive)
10,O=C(Nc1cccnc1Cl)c1cc2ccccc2o1,> 42 µM (inactive)
11,CCOC(=O)C1=C[C@]2(CC)CCCN3CCc4c(n1c1ccccc41)[C@@H]32,> 42 µM (inactive)
12,Cc1cc(C(F)(F)F)c(C#N)c(=O)[nH]1,> 42 µM (inactive)
13,CC(=O)c1c(Nc2cccc(F)c2)oc(C)cc1=O,> 42 µM (inactive)
14,NC(=S)N/N=C/c1cccc(O)c1O,> 42 µM (inactive)
15,CCNC(=O)COc1ccc(S(=O)(=O)Nc2ccccc2)cc1,> 21 µM (inactive)
16,CN(C)C(=O)CCN1CCOCC1,> 42 µM (inactive)
17,CC(C)(C)c1ccc(C(=O)NCCC(=O)N2CCN(c3ncccn3)CC2)cc1,> 42 µM (inactive)
18,O=C(Nc1ccccn1)c1ccc(CN(c2ccccc2)S(=O)(=O)c2ccccc2)cc1,> 42 µM (inactive)
19,COc1cccc(-c2ocnc2C(=O)Nc2ccc3c(c2)CCC3)c1,> 42 µM (inactive)
20,O=C1C2C(c3ccccc3)CC=CC2[C@H](c2ccc3ccccc3c2)N1Cc1ccccc1 (some centres not stated),> 42 µM (inactive)
21,O=C(NCc1cccnc1)Nc1ccccc1,> 42 µM (inactive)
22,O=C(Nc1ccsc1C(=O)O)c1cccc(C(F)(F)F)c1,> 42 µM (inactive)
23,O=C(NCc1ccccc1Cl)C(=O)NCC1CCCN1S(=O)(=O)c1cccs1 (configuration not stated),> 42 µM (inactive)
24,COC(=O)c1sccc1NC(=O)CC1C(=O)NCCN1C(=O)Nc1ccc(F)cc1F (configuration not stated),> 42 µM (inactive)
25,O=C(NCC(=O)N(c1ccccc1)C(C(=O)NCC1CCCO1)c1ccccc1)c1cccs1 (configuration not stated),> 42 µM (inactive)

row,Compound,AC50
1,CCCCOc1ccc(CSC(=N)N)cc1Cl,> 42 µM (inactive)
2,CC1CCCCC1N=CC1=C(O)CC(C)(C)CC1=O (configuration not stated),> 42 µM (inactive)
3,C/C(CC(=O)Nc1cccc(Cl)c1Cl)=N\NC(=O)c1ccccc1C,> 42 µM (inactive)
4,Cc1c(NC(=O)C(C)Sc2nnc(-c3ccccc3)o2)c(=O)n(-c2ccccc2)n1C (configuration not stated),> 42 µM (inactive)
5,CCOC(=O)N1CCN(C(=O)CNC(=O)c2nn(-c3ccc(OC)c(OC)c3)c(=O)c3ccccc23)CC1,> 42 µM (inactive)
6,Cc1cc(-c2nnc3sc(C4CCCCC4)nn23)n[nH]1,> 42 µM (inactive)
7,COc1ccccc1-n1c(O)c(/C=C2\C=Nc3ccccc32)c(=O)[nH]c1=O,> 42 µM (inactive)
8,CC[n+]1c(/C=C/N(C)c2ccccc2)n(-c2ccccc2)c2ccc(-c3nc4ccccc4s3)cc21,> 42 µM (inactive)
9,Cc1c(C(=O)Nc2cccc(F)c2)cnn1-c1ccccc1,> 42 µM (inactive)
10,CCCCn1c(SCC(=O)Nc2cc(C)on2)nnc1-c1ccco1,> 42 µM (inactive)
11,COc1ccc(-c2nc(C#N)c(NC(C)c3ccccc3)o2)cc1OC (configuration not stated),> 42 µM (inactive)
12,Cc1cc(-c2ccc(Cl)cc2Cl)c(C#N)c(=O)[nH]1,> 42 µM (inactive)
13,Fc1ccccc1-n1cc(-c2ccccc2)[nH]c1=S,> 42 µM (inactive)
14,Cc1cc(=O)c(C(=O)O)cn1Nc1ccc(Cl)cc1,> 42 µM (inactive)
15,O=C(c1cc(N2C(=O)C3C4CCC(C4)C3C2=O)ccc1Cl)N1CCN(c2ccccc2)CC1 (configuration not stated),> 42 µM (inactive)
16,Cc1nc2ccc(S(=O)(=O)NC(CC(C)C)C(=O)O)cc2s1 (configuration not stated),> 42 µM (inactive)
17,COc1ccc(-c2oc3ccc(-c4cc(OC)c(OC)c(OC)c4)cc3c2C(=O)c2ccc(OC)nc2)cc1,> 42 µM (inactive)
18,Cc1cc(C)c(NC(=O)CNC(=O)c2cc([N+](=O)[O-])ccc2N2CCOCC2)c(C)c1,> 42 µM (inactive)
19,CC1=C(C(=O)N2CCOCC2)C(c2ccc(O)cc2)NC(=S)N1 (configuration not stated),> 42 µM (inactive)
20,COC(=O)[C@@H]1[C@@H](C(=O)OC)C2(c3ccccc3-c3ccccc32)N(c2ccc(Cl)cc2)N1C#N,> 42 µM (inactive)
21,O=C(CCC(F)(F)F)N1CCCC(CO)(CCc2ccccc2)C1 (configuration not stated),> 42 µM (inactive)
22,O=C(CCN1C(=O)S/C(=C/c2ccccc2)C1=O)Nc1ccc(O)c(C(=O)O)c1,> 42 µM (inactive)
23,O=C(NCc1cccc(F)c1F)C1CCC(=O)N(C2CC2)C1 (configuration not stated),> 42 µM (inactive)
24,CCN(CC)S(=O)(=O)c1ccc(NC(=O)C(C)N(c2ccccc2)S(C)(=O)=O)cc1 (configuration not stated),> 42 µM (inactive)
25,CC(C)c1cccc(OCCCCN(C)C)c1,> 42 µM (inactive)

row,Compound,AC50
1,COC(=O)[C@@]12CCCCN1[C@H](c1ccc(-c3ccc(C(C)=O)cc3)cc1)[C@@H]1C(=O)N(C)C(=O)[C@@H]12,> 42 µM (inactive)
2,Cc1cccc(N(Cc2ccccc2)C(=O)CSC(C)C(=O)Nc2cc(C)on2)c1 (configuration not stated),> 42 µM (inactive)
3,COc1ccccc1C(=O)NCCNc1ccc([N+](=O)[O-])cc1Cl,> 42 µM (inactive)
4,CCC1CCCCN1C(=O)CSc1nc2c([nH]c3ccccc32)c(=O)n1C (configuration not stated),> 42 µM (inactive)
5,O=C(CCNS(=O)(=O)c1cccc2nsnc12)NCCC1=CCCCC1,> 42 µM (inactive)
6,COc1ccc(-c2nc(NC(=O)CCNC(=O)c3ccco3)sc2C)cc1,> 42 µM (inactive)
7,Cc1ccc(CNC(=O)CCNS(=O)(=O)c2cccs2)cc1,> 42 µM (inactive)
8,O=C1CC(=O)C(n2cncn2)C(c2ccc(Cl)cc2Cl)C1 (configuration not stated),> 42 µM (inactive)
9,CCOC(=O)c1sc(N/N=C/c2ccc(N(C)C)cc2)nc1C,> 42 µM (inactive)
10,CN(c1cccnc1)c1ncnc2[nH]ncc12,> 42 µM (inactive)
11,C/C(CC(=O)Nc1cccnc1)=N\NC(=O)C(C)Oc1ccc(Cl)cc1Cl (configuration not stated),> 42 µM (inactive)
12,COc1ccc(/C=C(\C#N)C(=O)NCCCn2ccnc2)cc1,> 42 µM (inactive)
13,CCc1cc2c(NCCO)ncnc2s1,> 42 µM (inactive)
14,O=C1NC(Cc2c[nH]c3ccccc23)C(=O)N1Cc1ccc(CN2C(=O)NC(Cc3c[nH]c4ccccc34)C2=O)cc1 (configuration not stated),> 42 µM (inactive)
15,Cc1ccc(C(=O)O)cc1N=Cc1cc(Br)cc(Br)c1O,> 42 µM (inactive)
16,CCCn1c(N)cc(=O)n(CCC)c1=O,> 42 µM (inactive)
17,Cc1ccc(C(=O)O)cc1[N+](=O)[O-],> 42 µM (inactive)
18,CCNC(=O)NC1c2ccccc2CSc2ccccc21 (configuration not stated),> 42 µM (inactive)
19,O=C(O)COc1ccc(Br)cc1/C=N\Nc1ccccn1,> 42 µM (inactive)
20,O=C(O)C1CCCCC1C(=O)Nc1ccc(S(=O)(=O)N2CCCC2)cc1 (configuration not stated),> 42 µM (inactive)
21,CCN(CC)CC(=O)Nc1ccc(Oc2ccc(NC(=O)CN(CC)CC)cc2)cc1,> 42 µM (inactive)
22,O=C(O)c1cn(Cc2ccccn2)c(=O)c2ccccc12,> 42 µM (inactive)
